From the supplement of paper PMC10307832

Legend:
Experiment in all cases: relative viability (nuclei count vs DMSO), 5 days (fraction); higher = more cells survive
[1] = compound: CC1(COc2ccc3c(c2)ncn3-c2ccc3cccc(N4CCC(N)CC4)c3n2)COC1 [Crenolanib] + CC(C)C[C@H](NC(=O)[C@H](Cc1ccccc1)NC(=O)c1cnccn1)B(O)O [Bortezomib] (partner 0.002 µM)
Outline: (§1)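 Cells from lung cancer lines were seeded into 1536-well plates and, one day later, dosed by pin tool. Treatments were either a single drug or a fixed dose of an anchor drug with five library-drug doses (not always all listed) in √10 steps. After 5 days, nuclei were stained in a one-step fixation (final 0.05% Triton X-100, 1% formaldehyde, 1 ug/ml Hoechst) and counted on 4× images, and relative viability is the treated-to-vehicle nuclei ratio, as the median of duplicate plates.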

[2] = compound: CC1(COc2ccc3c(c2)ncn3-c2ccc3cccc(N4CCC(N)CC4)c3n2)COC1 [Crenolanib] + C[C@]1(O)C[C@@H](c2nc(-c3ccc4ccc(-c5ccccc5)nc4c3)c3c(N)nccn32)C1 [Linsitinib] (partner 1 µM)
Outline: as §1

[3] = compound: O=C1NC(=O)[C@@H](c2cn3c4c(cccc24)CCC3)[C@@H]1c1c[nH]c2ccccc12 [Tivantinib] + CC(=O)c1c(C)c2cnc(Nc3ccc(N4CCNCC4)cn3)nc2n(C2CCCC2)c1=O [Palbociclib] (partner 0.5 µM)
Outline: as §1

[4] = compound: O=C1NC(=O)[C@@H](c2cn3c4c(cccc24)CCC3)[C@@H]1c1c[nH]c2ccccc12 [Tivantinib] + Cc1nc(Nc2ncc(C(=O)Nc3c(C)cccc3Cl)s2)cc(N2CCN(CCO)CC2)n1 [Dasatinib] (partner 0.075 µM)
Outline: as §1

| Cell Line | relative viability ([1]; first compound 0.01 µM) | relative viability ([1]; first compound 0.03162 µM) | relative viability ([1]; first compound 0.1 µM) | relative viability ([1]; first compound 0.3162 µM) | relative viability ([1]; first compound 1 µM) | relative viability ([2]; first compound 0.01 µM) | relative viability ([2]; first compound 0.03162 µM) | relative viability ([2]; first compound 0.1 µM) | relative viability ([2]; first compound 0.3162 µM) | relative viability ([2]; first compound 1 µM) | relative viability ([3]; first compound 0.01 µM) | relative viability ([3]; first compound 0.03162 µM) | relative viability ([3]; first compound 0.1 µM) | relative viability ([4]; first compound 0.01 µM) | relative viability ([4]; first compound 0.03162 µM) | relative viability ([4]; first compound 0.1 µM) | relative viability ([4]; first compound 0.3162 µM) | relative viability ([3]; first compound 0.3162 µM) |
| --- | --- | --- | --- | --- | --- | --- | --- | --- | --- | --- | --- | --- | --- | --- | --- | --- | --- | --- |
| HCC-827 | 1.08 | 0.962 | 0.963 | 1.04 | 0.933 | 0.958 | 0.94 | 0.946 | 0.953 | 0.872 | 0.458 | 0.531 | 0.487 | 0.237 | 0.295 | 0.375 | 0.131 |  |
| HOP-62 | 1.01 | 0.488 | 0.743 | 0.317 | 0.309 | 0.94 | 0.764 | 0.906 | 1.04 | 1.01 | 0.454 | 0.399 | 0.425 | 0.711 | 0.521 | 0.606 | 0.739 | 0.466 |
| IA-LM | 0.806 | 0.771 | 0.726 | 0.949 | 0.978 | 0.717 | 0.558 | 0.605 | 0.841 | 0.834 |  |  |  |  |  |  |  |  |
| LC-2-ad | 1.09 | 0.959 | 0.98 | 1.18 | 0.99 | 0.834 | 0.887 | 0.797 | 0.844 | 0.873 | 0.46 | 0.442 | 0.515 | 0.554 | 0.527 | 0.641 | 0.477 | 0.456 |
| LCLC-97TM1 | 0.454 | 0.396 | 0.69 | 0.896 | 0.699 | 0.18 | 0.222 | 0.185 | 0.186 | 0.184 | 0.271 | 0.257 | 0.172 | 0.796 | 0.61 | 0.869 | 0.824 | 0.225 |
| LCLC-103H | 1.05 | 1.02 | 0.922 | 0.954 | 0.976 | 1.09 | 0.989 | 1.08 | 1.08 | 0.988 | 0.477 | 0.449 | 0.486 | 0.424 | 0.428 | 0.429 | 0.436 | 0.409 |
| LK-2 |  |  |  |  |  | 0.675 | 0.626 | 0.624 | 0.425 | 0.562 | 0.643 | 0.472 | 0.69 | 0.281 |  | 0.341 | 0.301 | 0.369 |
| LOU-NH91 | 0.336 | 0.474 | 0.45 | 0.49 | 0.513 | 1.02 | 0.908 | 0.822 | 0.887 | 0.936 | 0.557 | 0.543 | 0.527 | 0.586 | 0.565 | 0.568 | 0.464 | 0.541 |
| LU99A | 1.23 | 1.28 | 0.983 | 1.34 | 1.05 | 0.547 | 0.559 | 0.531 | 0.628 | 0.603 | 0.393 | 0.427 | 0.392 | 0.533 | 0.64 | 0.527 | 0.402 | 0.366 |
| NCI-H358 |  |  |  |  |  | 0.819 | 0.682 | 0.566 | 0.727 | 0.58 | 0.172 | 0.16 | 0.151 | 0.128 | 0.165 | 0.143 | 0.109 | 0.0952 |
| NCI-H522 |  |  |  |  |  |  |  |  |  |  | 1.06 | 0.737 | 1.03 | 0.902 | 0.712 | 0.831 | 0.864 | 0.812 |
| NCI-H596 | 0.929 | 1.07 | 0.998 | 0.981 | 1.17 | 1.01 | 0.994 | 0.97 | 0.961 | 1.18 |  |  |  | 0.486 | 0.543 | 0.635 | 0.619 |  |
| NCI-H1299 | 1.04 | 1.02 | 0.968 | 1.04 | 1.03 | 0.995 | 0.912 | 0.946 | 1.01 | 0.958 |  |  |  |  |  |  |  |  |
| NCI-H1395 |  |  |  |  |  | 1.6 | 1.11 | 1 | 0.898 | 1.21 | 0.708 | 0.625 | 0.632 | 0.396 | 0.339 | 0.437 | 0.434 | 0.527 |
| NCI-H1563 | 0.926 | 0.901 | 0.897 | 0.865 | 0.829 | 1.12 | 1.3 | 1.18 | 1.23 | 1.06 |  |  |  | 0.453 | 0.443 | 0.514 | 0.399 |  |
| NCI-H1623 |  |  |  |  |  |  |  |  |  |  |  |  |  | 0.464 | 0.424 | 0.494 |  |  |
| NCI-H1648 |  |  |  |  |  |  |  |  |  |  |  | 0.235 | 0.21 |  |  |  |  | 0.267 |
| NCI-H1650 | 0.217 | 0.194 | 0.197 | 0.205 | 0.203 |  |  |  |  |  | 0.325 | 0.322 | 0.426 | 0.41 | 0.289 | 0.276 | 0.313 | 0.254 |
| NCI-H1703 | 0.419 | 0.231 | 0.218 | 0.207 | 0.181 | 0.566 | 0.645 | 0.574 | 0.285 | 0.154 |  |  |  |  |  |  |  |  |
| NCI-H1793 |  |  |  |  |  | 0.811 | 1.03 | 0.838 | 1.14 | 0.873 | 0.334 | 0.237 | 0.325 | 0.345 | 0.419 | 0.376 | 0.346 | 0.241 |
| NCI-H1944 |  |  |  |  |  | 1.18 | 1.15 | 1.21 | 1.32 | 1.17 | 0.366 | 0.327 | 0.324 | 0.219 | 0.196 | 0.211 | 0.208 | 0.297 |
| NCI-H2170 |  |  |  |  |  |  |  |  |  |  | 0.398 | 0.411 | 0.363 | 0.659 | 0.469 | 0.558 |  |  |
| NCI-H2342 |  |  |  |  |  |  |  |  |  |  | 0.498 | 0.49 | 0.719 | 0.31 | 0.296 | 0.322 | 0.31 | 0.438 |
| SK-MES-1 |  |  |  |  |  | 1.09 | 1.13 | 0.945 | 1.13 | 1.04 | 0.336 | 0.345 | 0.296 | 0.521 | 0.386 | 0.309 | 0.186 | 0.361 |
| SW 900 |  |  |  |  |  |  |  |  |  |  | 0.581 | 0.535 | 0.588 | 0.582 | 0.735 | 0.467 | 0.611 | 0.492 |
